According to patent publication US20080096989A1, “Flame Retardant Expanded Polystyrene Foam Compositions” (ALBEMARLE CORPORATION, priority 2004, published 2008):

Experiment: Thermal HBr Measurement Test (thermal stability)
Type: physicochemical
Conditions: heated about 15 minutes at about 220° C. under nitrogen; average of duplicate; lower = more thermally stable
Description: The thermal stability of N,2-3-dibromopropyl-4,5-dibromohexahydrophthalimde (“compound (I)”) used in accordance with the present invention was evaluated using the Thermal HBr Measurement Test.
First, a sample of from about 0.5 to about 1.0 g flame retardant was weighed into a three neck 50 mL round bottom flask. Teflon tubing was then attached to one of the openings in the flask. Nitrogen was fed into the flask through the Teflon tubing at a flow rate of about 0.5 SCFH. A small reflux condenser was attached to another opening on the flask. The third opening was plugged. An about 50 vol % solution of glycol in water at a temperature of about 85° C. was run through the reflux condenser. Viton tubing was attached to the top of the condenser and to a gas-scrubbing bottle. Two more bottles were attached in series to the first. All three bottles had about 90 mL of about 0.1 N NaOH solutions. After assembling the apparatus, the nitrogen was allowed to purge through the system for about 2 minutes. The round bottom flask was then placed into an oil bath at about 220° C. and the sample was heated for about 15 minutes. The flask was then removed from the oil bath and the nitrogen was allowed to purge for about 2 minutes. The contents of the three gas scrubbing bottles were transferred to a 600 mL beaker. The bottles and viton tubing were rinsed into the beaker. […]

O=C1C2CC(Br)C(Br)CC2C(=O)N1CC(Br)CBr (stereo not shown) [compound I, N,2-3-dibromopropyl-4,5-dibromohexahydrophthalimde]
HBr (ppm): 2,058 ppm
